This note sets out measurements from US7041698B2, “Hepatitis C virus inhibitors” (Bristol-Myers Squibb Company, priority 2002, dated 2006).

The target of one test is T1, NS3/4A H77C strain (Hepatitis C virus genotype 1a, UniProt P27958, C1454S).
T1 construct: DNA encoding the recombinant HCV NS3/4A protease complex (amino acids 1027 to 1711) for these strains; His tag (inferred from pET21b vector and Ni-NTA purification); made in house; host or cells: Escherichia coli BL21 (DE3)
Kind of test: Recombinant HCV NS3/4A protease complex FRET peptide assay, H77C strain. Type of test: biochemical, HCV genotype 1a. The text has this:
Recombinant HCV NS3/4A Protease Complex FRET Peptide Assay
The purpose of this in vitro assay was to measure the inhibition of HCV NS3 protease complexes, derived from the BMS, H77C or J416S strains, as described below, by compounds of the present invention. This assay provides an indication of how effective compounds of the present invention would be in inhibiting HCV proteolytic activity.
Serum from an HCV-infected patient was obtained from Dr. T. Wright, San Francisco Hospital. An engineered full-length cDNA (compliment deoxyribonucleic acid) template of the HCV genome (BMS strain) was constructed from DNA fragments obtained by reverse transcription-PCR (RT-PCR) of serum RNA (ribonucleic acid) and using primers selected on the basis of homology between other genotype 1a strains. From the determination of the entire genome sequence, a genotype 1a was assigned to the HCV isolate according to the classification of Simmonds et al. (See P Simmonds, K A Rose, S Graham, S W Chan, F McOmish, B C Dow, E A Follett, P L Yap and H Marsden, J. Clin. Microbiol., 31(6), 1493–1503 (1993)). […]

Test [1] deals with T2, HCV NS3/4A protease complex (UniProt P27958, C1454S/C1711G, species not given).
T2 construct: fused on or other part: Three-lysine solubilising tail at the C-terminus of NS4A
In words: Recombinant HCV NS3/4A protease complex FRET peptide assay (strain not stated). Type of test: biochemical. The note with it: read-out: IC50 range, HCV NS3/4A protease enzyme assay.

The target in test [2] is T3, porcine pancreatic elastase (PPE) (Sus scrofa, UniProt P00772).
T3 construct: purchased Sigma
Kind of test: Specificity assay, porcine pancreatic elastase. Type of test: biochemical. The note with it: 2 hr pre-incubation at RT. As to the method:
The specificities of compounds of the present invention were determined against a variety of serine proteases: human sputum elastase (HS), porcine pancreatic elastase (PPE) and human pancreatic chymotrypsin and one cysteine protease: human liver cathepsin B. In all cases a 96-well plate format protocol using calorimetric p-nitroaniline (pNA) substrate specific for each enzyme was used as described previously (Patent WO 00/09543) with some modifications to the serine protease assays. All enzymes were purchased from Sigma while the substrates were from Bachem.
Each assay included a 2 hr enzyme-inhibitor pre-incubation at RT followed by addition of substrate and hydrolysis to ˜30% conversion as measured on a Spectramax Pro microplate reader. Compound concentrations varied from 100 to 0.4 μM depending on their potency. […]
The percentage of inhibition was calculated using the formula: [1-((UVinh−UVblank)/(UVctl−UVblank))]×100 […]

Each structure is given as a SMILES string. Bounds are passed on as bounds.

T1 sequence (P27958 1027-1657 C1454S): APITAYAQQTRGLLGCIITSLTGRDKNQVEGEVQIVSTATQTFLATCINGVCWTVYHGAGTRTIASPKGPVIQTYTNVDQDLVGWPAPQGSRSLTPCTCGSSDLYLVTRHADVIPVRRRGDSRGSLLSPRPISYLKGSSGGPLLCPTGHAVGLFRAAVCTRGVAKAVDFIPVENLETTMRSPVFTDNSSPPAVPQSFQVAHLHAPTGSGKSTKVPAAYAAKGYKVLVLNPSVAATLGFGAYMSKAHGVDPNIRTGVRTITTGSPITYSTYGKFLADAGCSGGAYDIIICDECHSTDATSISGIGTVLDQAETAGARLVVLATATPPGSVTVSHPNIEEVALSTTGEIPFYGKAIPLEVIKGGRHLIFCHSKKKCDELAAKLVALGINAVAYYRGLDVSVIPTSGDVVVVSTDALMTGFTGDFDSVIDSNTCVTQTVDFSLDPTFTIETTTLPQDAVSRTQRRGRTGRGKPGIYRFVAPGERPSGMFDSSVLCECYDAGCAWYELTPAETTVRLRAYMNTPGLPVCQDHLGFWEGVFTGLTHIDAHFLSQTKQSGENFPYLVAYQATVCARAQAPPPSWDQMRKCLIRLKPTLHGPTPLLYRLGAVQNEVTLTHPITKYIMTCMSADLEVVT
T1 sequence (P27958 1658-1714 partner, looked up, stated change not applied): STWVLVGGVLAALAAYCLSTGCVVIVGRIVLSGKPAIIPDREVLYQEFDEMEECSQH
T3 sequence (P00772 27-266): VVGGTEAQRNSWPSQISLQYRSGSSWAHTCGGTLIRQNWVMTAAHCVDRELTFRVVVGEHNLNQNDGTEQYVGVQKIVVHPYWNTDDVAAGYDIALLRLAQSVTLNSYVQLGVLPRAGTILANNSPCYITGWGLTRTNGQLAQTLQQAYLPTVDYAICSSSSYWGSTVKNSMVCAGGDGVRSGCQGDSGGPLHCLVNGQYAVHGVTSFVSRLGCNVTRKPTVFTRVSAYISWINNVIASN

Consider `C=CC1C[C@]1(NC(=O)[C@@H]1C[C@@H](OC(=O)Nc2ccccc2-c2ccccc2)CN1C(=O)[C@@H](NC(=O)OC(C)(C)C)C(C)(C)C)C(=O)NS(=O)(=O)C1CC1` (stereo partly drawn) [Compound 8, BocNH-P3(t-BuGly)-P2(Hyp(O—CO(NH-biphen-2-yl)))-P1(1R,2S VinylAcca)—CONHSO2Cyclopropane], for which the results for the IC50 (on NS3/4A H77C strain; in test [1]; in test [2]) were 11 nM, < 100 nM and > 100 µM, respectively.
